We go through 27 compounds from publication PMC3773436 (Evidence-based Complementary and Alternative Medicine : eCAM, 2013).

The target in assay [1] is T1, Porcine kidney DPP-IV (Sus scrofa, UniProt P22411).
T1 construct: purchased Sigma-Aldrich; host or cells: porcine kidney (tissue-derived, as named)
The experiment in a line: Inhibitory kinetics study, Lineweaver-Burk plot, Gly-Pro-AMC substrate. Type of assay: biochemical. The note with it: for Ki: Gly-Pro-AMC 0–60 μM, read-out: K i (enzyme-inhibition constant, experimental). The procedure:
Each concentration was evaluated in the presence of various concentrations of Gly-Pro-AMC (0–60 μM). DPP-IV activity was measured using the DPP-IV Glo Protease Assay as mentioned above. The inhibition pattern was evaluated utilizing the Lineweaver-Burk plot. Enzyme-inhibition constant K i was determined by plotting the reciprocal of the initial luminescence versus the reciprocal of the initial substrate concentration.
Initial rates of the reaction were measured, and the results are expressed as a Lineweaver-Burk plot. Data are expressed as the mean of four independent experiments.

The target in assay [2] is T1, Porcine kidney DPP-IV. Briefly: DPP-IV Glo Protease Assay (luminescence), DPP-IV inhibition. Type of assay: biochemical. The note with it: for DPP-IV inhibitory activity (in words): tested at 0.5, 5, 20 and 40 μg/mL, data not shown. The source says:
All solvents used for phenolic extraction were HPLC-grade and were purchased from Fisher Scientific (Pittsburg, PA). Amberlite XAD-7 was purchased from Sigma-Aldrich (St. Louis, MO). Sephadex LH-20 was purchased from GE Life Sciences (Buckinghamshire, UK). […] DPP-IV Glo^TM Protease Assay kits were purchased from Promega (Madison, WI). […] All other reagents were of analytical grade.
Measurement of the activity and potential inhibition of DPP-IV, a type II membrane glycoprotein, was done using the DPP-IV Glo^TM Protease Assay following the manufacture's protocol (Promega, Madison, WI). Briefly, 50 μL of DPP-IV Glo^TM reagent was added to a white-walled 96-well plate containing 50 μL of blank, positive control, or treatment. The blank contained the vehicle only while positive control contained the vehicle and purified DPP-IV enzyme (at a final concentration of 1 ng/mL). […] The content of the wells was gently mixed using an Ultra Microplate Reader (Biotek Instruments, Winooski, VT) at medium intensity for 4 s. DPP-IV cleavage of the provided Gly-Pro-amino methyl coumarin (AMC) substrate generated a luminescent signal by luciferase reaction, with the amount of DPP-IV enzyme available to bind Gly-Pro-AMC proportional to relative light units (RLU) produced. This signal in RLU was measured after 30 min in the Ultra Microplate Reader and then compared to the blank. […] IC50 values were calculated based on the molecular mass of each compound or C3G as the equivalent for ANC-enriched fractions.
Data were expressed as means of independent duplicates with at least three replicates. […] Statistical analysis was conducted using the proc GLM procedures of SAS version 9.3 (SAS Inst. Inc., Cary, NC, 2009). Group mean comparisons were conducted using Duncan means and were considered to be significant at P < 0.05 based on the least significant differences (LSD) from one-way analysis of variance (ANOVA) with alpha = 0.05. Correlations were made using Pearson's correlation values with P < 0.05.

[3] abbreviates: pure compounds, concentration based on molecular mass, means ± SEM, read-out: IC50, DPP-IV inhibition.

Structures are written as SMILES. Entries after “also recorded” stand apart in the source; their conditions may differ. Read-outs that look alike come from different tables or passages of the source.

Usually IC50 stands for the point on the concentration scale where inhibition reaches its midpoint.

T1 sequence (P22411 whole entry): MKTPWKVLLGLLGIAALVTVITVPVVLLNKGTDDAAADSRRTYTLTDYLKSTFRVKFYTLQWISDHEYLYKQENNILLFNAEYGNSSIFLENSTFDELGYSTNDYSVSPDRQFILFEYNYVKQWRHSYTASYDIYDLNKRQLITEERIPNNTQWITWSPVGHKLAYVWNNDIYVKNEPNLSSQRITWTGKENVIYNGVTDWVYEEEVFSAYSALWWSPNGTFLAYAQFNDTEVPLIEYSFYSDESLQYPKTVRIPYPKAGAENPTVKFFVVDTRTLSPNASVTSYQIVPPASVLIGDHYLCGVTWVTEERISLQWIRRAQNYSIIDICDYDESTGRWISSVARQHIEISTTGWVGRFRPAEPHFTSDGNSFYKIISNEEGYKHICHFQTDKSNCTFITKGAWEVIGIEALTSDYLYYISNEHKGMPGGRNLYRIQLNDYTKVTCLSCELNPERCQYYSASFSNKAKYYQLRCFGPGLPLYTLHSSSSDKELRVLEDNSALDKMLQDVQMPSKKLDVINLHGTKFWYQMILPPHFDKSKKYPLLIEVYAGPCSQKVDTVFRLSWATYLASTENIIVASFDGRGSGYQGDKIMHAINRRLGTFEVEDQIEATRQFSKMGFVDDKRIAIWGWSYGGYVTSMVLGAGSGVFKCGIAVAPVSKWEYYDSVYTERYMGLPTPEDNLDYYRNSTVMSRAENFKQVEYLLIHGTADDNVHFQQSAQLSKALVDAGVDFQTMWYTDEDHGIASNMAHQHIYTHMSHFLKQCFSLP

As for `O=c1cc(-c2ccc(O)cc2)oc2cc(O)cc(O)c12` [Apigenin, apigenin], at Porcine kidney DPP-IV [1], the Inhibition manner result was “noncompetitively; also recorded: noncompetitive” and the Ki came to 7900 ± 1400 nM. The IC50 on Porcine kidney DPP-IV [2] (setting [3]) is 140 ± 20 nM.
Consider `O=C(O)/C=C/c1ccc(O)c(O)c1` [Caffeic acid, caffeic acid], for which, at Porcine kidney DPP-IV [2] (setting [3]), the IC50 is 3370 ± 140 nM.
On the same count and under the same terms, the value for `Oc1cc(O)c2cc(O)c(-c3ccc(O)c(O)c3)[o+]c2c1` [Cyanidin, cyanidin] was 1410 ± 250 nM; that for `OC[C@H]1O[C@@H](Oc2cc3c(O)cc(O)cc3[o+]c2-c2ccc(O)c(O)c2)[C@H](O)[C@@H](O)[C@@H]1O` [Cyanidin-3-glucoside, cyanidin-3-glucoside] was 420 ± 90 nM; that for `O=C(O[C@@H]1Cc2c(O)cc(O)cc2O[C@@H]1c1cc(O)c(O)c(O)c1)c1cc(O)c(O)c(O)c1` [EGCG, epigallocatechin gallate] was 10200 ± 750 nM.
Consider `C[C@@H]1O[C@@H](OC[C@H]2O[C@@H](Oc3cc(O)c4c(c3)O[C@H](c3ccc(O)c(O)c3)CC4=O)[C@H](O)[C@@H](O)[C@@H]2O)[C@H](O)[C@H](O)[C@H]1O` [Eriocitrin, eriocitrin], for which, at Porcine kidney DPP-IV [2] (setting [3]), the IC50 was found to be 10360 ± 90 nM.
On to `O=c1cc(-c2ccccc2)oc2ccccc12` [Flavone, flavone], for which, at Porcine kidney DPP-IV [1], the Inhibition manner entry is recorded as “competitive” and the Ki amounted to 18600 ± 300 nM. Moreover, at Porcine kidney DPP-IV [2] (setting [3]), the IC50 was found to be 170 ± 10 nM.
Consider `O=C(O)c1cc(O)c(O)c(O)c1` [Gallic acid, gallic acid], for which the IC50 at Porcine kidney DPP-IV [2] (setting [3]) came out at 4650 ± 990 nM.
Take `O=c1c(-c2ccc(O)cc2)coc2cc(O)cc(O)c12` [Genistein, genistein]: the 50% inhibitory concentration (IC50) on Porcine kidney DPP-IV [2] (setting [3]) was found to be 480 ± 40 nM.
Same read-out and setting: next, `COc1ccc([C@@H]2CC(=O)c3c(O)cc(O)cc3O2)cc1O` [Hesperetin, hesperetin]: 280 ± 70 nM; `O=c1c(O)c(-c2ccc(O)cc2)oc2cc(O)cc(O)c12` [Kaempferol, kaempferol]: 490 ± 20 nM.
In the case of `O=c1cc(-c2ccc(O)c(O)c2)oc2cc(O)cc(O)c12` [Luteolin, luteolin], on Porcine kidney DPP-IV [1], the Inhibition manner entry was “noncompetitively; also recorded: noncompetitive” and the Ki came out at 4900 ± 200 nM. Further, the IC50 on Porcine kidney DPP-IV [2] (setting [3]) worked out at 120 ± 10 nM.
The compound `COc1cc(-c2[o+]c3cc(O)cc(O)c3cc2O)cc(OC)c1O` [Malvidin, malvidin] had an IC50 against Porcine kidney DPP-IV [2] of 740 ± 160 nM.
In the case of `O=C1C[C@@H](c2ccc(O)cc2)Oc2cc(O)cc(O)c21` [Naringenin, naringenin], the IC50 at Porcine kidney DPP-IV [2] (setting [3]) is 240 ± 30 nM.
Still for that read-out and setting: next, `O=c1c(O)c(-c2ccc(O)c(O)c2)oc2cc(O)cc(O)c12` [Quercetin, quercetin]: 2920 ± 680 nM.
Regarding `Oc1ccc(/C=C/c2cc(O)cc(O)c2)cc1` [Resveratrol, resveratrol], on Porcine kidney DPP-IV [1], the Inhibition manner result is “competitive” and the Ki turned out to be 200 ± 10 nM. Further, the IC50 on Porcine kidney DPP-IV [2] (setting [3]) was determined as 0.6 ± 0.4 nM.
Take `O.Oc1cc(O)c2c(c1)O[C@H](c1ccc(O)c(O)c1)[C@@H](O)C2` [catechin]: at Porcine kidney DPP-IV [2], the “DPP-IV inhibitory activity (in words)” value is “did not have DPP-IV inhibitory activity”.
The same measure, in the same setting: next, `O=C(/C=C/c1ccc(O)c(O)c1)O[C@@H]1C[C@](O)(C(=O)O)C[C@@H](O)[C@H]1O` [chlorogenic acid]: “did not have DPP-IV inhibitory activity”; `Oc1cc(O)c2c(c1)O[C@H](c1ccc(O)c(O)c1)[C@H](O)C2` [epicatechin]: “did not have DPP-IV inhibitory activity”.
Take `O=c1c(-c2ccc(O)cc2)coc2cc(O[C@@H]3O[C@H](CO)[C@@H](O)[C@H](O)[C@H]3O)cc(O)c12` [genistin]: on Porcine kidney DPP-IV [2], the “DPP-IV inhibitory activity (in words)” value is given as “did not have DPP-IV inhibitory activity”.
Still for that read-out and setting: the value for `COc1ccc([C@@H]2CC(=O)c3c(O)cc(O[C@@H]4O[C@H](CO[C@@H]5O[C@@H](C)[C@H](O)[C@@H](O)[C@H]5O)[C@@H](O)[C@H](O)[C@H]4O)cc3O2)cc1O` [hesperidin] was “did not have DPP-IV inhibitory activity; also recorded: no DPP-IV inhibitory effect”; that for `CC1(C)O[C@H]2CC(=O)OC[C@]23[C@H]2CC[C@@]4(C)[C@H](c5ccoc5)OC(=O)[C@H]5O[C@]54[C@]2(C)C(=O)C[C@@H]13` [limonin] was “did not have DPP-IV inhibitory activity”; that for `C[C@@H]1O[C@@H](O[C@H]2[C@H](Oc3cc(O)c4c(c3)O[C@H](c3ccc(O)cc3)CC4=O)O[C@H](CO)[C@@H](O)[C@@H]2O)[C@H](O)[C@H](O)[C@H]1O` [naringin] was “did not have DPP-IV inhibitory activity; also recorded: no DPP-IV inhibitory effect”.
Still for that read-out and setting: next, `C[C@@H]1O[C@@H](OC[C@H]2O[C@@H](Oc3cc(O)c4c(c3)O[C@H](c3ccc(O)cc3)CC4=O)[C@H](O)[C@@H](O)[C@@H]2O)[C@H](O)[C@H](O)[C@H]1O` [narirutin]: “did not have DPP-IV inhibitory activity; also recorded: no DPP-IV inhibitory effect”; `COc1ccc([C@@H]2CC(=O)c3c(O)cc(O[C@@H]4O[C@H](CO)[C@@H](O)[C@H](O)[C@H]4O[C@@H]4O[C@@H](C)[C@H](O)[C@@H](O)[C@H]4O)cc3O2)cc1O` [neohesperidin]: “did not have DPP-IV inhibitory activity; also recorded: no DPP-IV inhibitory effect”.
Still for that read-out and setting: next, `O=C(O)c1ccc(O)c(O)c1` [protocatechuic acid]: “did not have DPP-IV inhibitory activity”; `C[C@@H]1O[C@@H](OC[C@H]2O[C@@H](Oc3c(-c4ccc(O)c(O)c4)oc4cc(O)cc(O)c4c3=O)[C@H](O)[C@@H](O)[C@@H]2O)[C@H](O)[C@H](O)[C@H]1O` [rutin, rutin hydrate]: “did not have DPP-IV inhibitory activity; also recorded: no DPP-IV inhibitory effect”.
